Source: patent US20240101572A1, “DIHYDROOXADIAZINONE COMPOUND AND PHARMACEUTICAL USE THEREOF” (Japan Tobacco Inc., priority 2022, published 2024)
Like-named read-outs stand apart in the source and are kept apart here.

Columns and labels:
[1] = biological target: full-length human PLD1 (Homo sapiens (Human), UniProt Q13393); experiment: Evaluation of human PLD1 enzyme inhibitory activity (Amplex Red / choline oxidase fluorescence); assay type: biochemical
In short: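 Fluorescence read-out couples choline to Amplex Red via choline oxidase and peroxidase after a 60 min room-temperature reaction. Enzyme: FLAG-tagged full-length human PLD1 from Expi293F cells, anti-FLAG purified; substrate diheptanoyl phosphatidylcholine; HEPES pH 7.5 assay buffer with 0.01% NP-40, 0.1% BSA, 5% DMSO final.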

[2] = biological target: full-length human PLD2 (Homo sapiens (Human), UniProt O14939); experiment: Evaluation of human PLD2 enzyme inhibitory activity (Amplex Red / choline oxidase fluorescence); assay type: biochemical
In short: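 Released choline was read by Amplex Red fluorescence coupled to choline oxidase and HRP after a 60 min room-temperature reaction. Substrate was diheptanoyl phosphatidylcholine, added as a 6 mmol/L solution, and enzyme was FLAG-tagged full-length human PLD2 from Expi293F, added as a 6 nmol/L solution. Buffer was 50 mM HEPES pH 7.5 with 5% final DMSO.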

[3] = full-length human PLD1 enzyme, read-out: PLD1 IC50
[4] = full-length human PLD2 enzyme, read-out: PLD2 IC50

Chain of full-length human PLD1 (Q13393 other isoform, or with tags, fused parts or gaps): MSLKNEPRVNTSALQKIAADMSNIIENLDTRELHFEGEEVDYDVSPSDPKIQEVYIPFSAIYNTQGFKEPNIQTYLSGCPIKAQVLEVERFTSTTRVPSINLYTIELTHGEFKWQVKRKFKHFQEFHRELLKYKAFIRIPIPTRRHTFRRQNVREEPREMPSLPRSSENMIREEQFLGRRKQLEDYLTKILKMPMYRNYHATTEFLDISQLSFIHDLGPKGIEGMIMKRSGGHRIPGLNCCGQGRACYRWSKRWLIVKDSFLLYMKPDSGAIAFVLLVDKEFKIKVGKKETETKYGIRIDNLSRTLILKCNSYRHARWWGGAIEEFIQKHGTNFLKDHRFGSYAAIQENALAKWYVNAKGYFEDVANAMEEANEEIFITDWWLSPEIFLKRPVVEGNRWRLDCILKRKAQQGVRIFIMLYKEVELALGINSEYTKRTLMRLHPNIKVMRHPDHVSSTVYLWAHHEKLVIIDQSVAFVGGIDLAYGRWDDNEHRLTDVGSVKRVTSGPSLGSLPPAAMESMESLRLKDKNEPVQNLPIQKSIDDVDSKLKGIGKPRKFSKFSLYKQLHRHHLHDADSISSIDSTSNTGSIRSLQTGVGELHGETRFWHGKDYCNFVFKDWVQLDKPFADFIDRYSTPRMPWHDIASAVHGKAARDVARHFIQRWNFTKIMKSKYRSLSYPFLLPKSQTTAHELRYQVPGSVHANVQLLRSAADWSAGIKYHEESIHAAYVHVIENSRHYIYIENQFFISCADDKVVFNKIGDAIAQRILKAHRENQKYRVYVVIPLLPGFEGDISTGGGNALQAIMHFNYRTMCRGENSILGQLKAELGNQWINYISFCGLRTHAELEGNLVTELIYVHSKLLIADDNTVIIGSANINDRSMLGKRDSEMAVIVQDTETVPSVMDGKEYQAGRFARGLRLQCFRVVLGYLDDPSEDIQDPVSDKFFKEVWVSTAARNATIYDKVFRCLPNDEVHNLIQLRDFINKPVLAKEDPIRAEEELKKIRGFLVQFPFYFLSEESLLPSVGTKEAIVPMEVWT
Chain of full-length human PLD2 (O14939 whole entry): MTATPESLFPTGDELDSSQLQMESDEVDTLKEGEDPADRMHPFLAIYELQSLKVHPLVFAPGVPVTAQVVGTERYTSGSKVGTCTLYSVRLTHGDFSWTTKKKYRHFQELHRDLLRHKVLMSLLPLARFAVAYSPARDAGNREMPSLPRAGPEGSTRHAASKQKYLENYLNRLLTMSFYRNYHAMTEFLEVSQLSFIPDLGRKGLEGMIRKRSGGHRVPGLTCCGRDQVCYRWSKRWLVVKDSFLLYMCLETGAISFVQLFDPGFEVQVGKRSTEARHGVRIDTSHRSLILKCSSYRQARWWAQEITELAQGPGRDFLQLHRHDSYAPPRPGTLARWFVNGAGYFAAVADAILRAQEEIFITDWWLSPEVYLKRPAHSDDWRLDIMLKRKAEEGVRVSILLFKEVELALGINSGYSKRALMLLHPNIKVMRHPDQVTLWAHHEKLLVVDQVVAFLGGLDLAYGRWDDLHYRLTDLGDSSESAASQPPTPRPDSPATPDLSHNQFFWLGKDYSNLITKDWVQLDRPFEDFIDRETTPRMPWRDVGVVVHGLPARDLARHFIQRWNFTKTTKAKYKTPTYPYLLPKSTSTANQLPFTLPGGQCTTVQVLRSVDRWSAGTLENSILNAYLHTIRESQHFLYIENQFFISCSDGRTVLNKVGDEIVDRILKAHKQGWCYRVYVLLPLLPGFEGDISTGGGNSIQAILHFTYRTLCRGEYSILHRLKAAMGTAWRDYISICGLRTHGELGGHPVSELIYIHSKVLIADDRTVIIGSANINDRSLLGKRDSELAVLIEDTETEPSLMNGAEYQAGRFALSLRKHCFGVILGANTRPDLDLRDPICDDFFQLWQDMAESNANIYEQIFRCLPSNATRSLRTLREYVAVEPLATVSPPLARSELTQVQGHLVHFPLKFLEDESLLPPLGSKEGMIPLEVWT

| Compound | IC50 [1, 3] [nM] | IC50 [2, 4] [nM] | IC50 ([1]; column 1 of continuation tables 2-12 to 2-14, read-out: human PLD1 enzyme inhibitory activity IC50) [nM] | IC50 ([2]; column 2 of continuation tables 2-12 to 2-14, read-out: human PLD2 enzyme inhibitory activity IC50) [nM] |
| --- | --- | --- | --- | --- |
| CNC(=O)C(=O)N[C@@H](C)C[C@H]1CC[C@]2(CC1)OC(=O)NN=C2c1cnc(N2CCCCC2)cc1C [Example 166] | 19 | < 10 |  |  |
| C[C@@H](CN1CCC2(CC1)OC(=O)NN=C2c1ccc(F)cc1Br)NC(=O)c1cc2cc(F)ccc2[nH]1 [Example 2] | 20 | < 10 |  |  |
| CNC(=O)C(=O)N[C@H](CN1CCC2(CC1)OC(=O)NN=C2c1cc(C#N)ccc1Br)C(F)(F)F [Example 2-017] | 99 | 45 |  |  |
| CNC(=O)C(=O)N[C@@H](C)C[C@H]1CC[C@]2(CC1)OC(=O)NN=C2c1cc(Br)ccc1C [Example 212] | < 10 | < 10 |  |  |
| C[C@@H](CN1CCC2(CC1)OC(=O)NN=C2c1ccc(F)cc1Cl)NC(=O)c1ncn[nH]1 [Example 95] | 8060 | 6160 |  |  |
| CNC(=O)C(=O)N[C@@H](C)CN1CCC2(CO1)OC(=O)NN=C2c1cc(C#N)ccc1Br (stereo partly shown) [Example 2-025] | 219 | 205 |  |  |
| CNC(=O)N[C@@H](C)C[C@H]1CC[C@]2(CC1)OC(=O)NN=C2c1ccc(F)cc1I [Example 183] | 42 | 107 |  |  |
| CNC(=O)C(=O)N[C@@H](C)CN1CCC2(CC1)OC(=O)NN=C2c1ccc(Br)cc1C(F)(F)F [Example 328] | 48 | 34 |  |  |
| C[C@@H](C[C@H]1CC[C@]2(CC1)OC(=O)NN=C2c1ccccc1OC(F)(F)F)NC(=O)c1cc(Cl)no1 [Example 111] | 17 | 21 |  |  |
| CNC(=O)C(=O)N[C@@H](C)CN1CC2CC1CC21OC(=O)NN=C1c1ccc(F)cc1Br (mixture of isomers) [Example 2-005] | 433 | 35 |  |  |
| CNC(=O)C(=O)N[C@@H](C)C[C@H]1CC[C@]2(CC1)OC(=O)NN=C2c1ccc(C#N)cc1C [Example 152] | 23 | 13 |  |  |
| Cc1ncccc1C1=NNC(=O)O[C@]12CC[C@@H](C[C@H](C)NC(=O)c1cc(Cl)no1)CC2 [Example 103] | 170 | 379 |  |  |
| CNC(=O)C(=O)N[C@@H](C)C[C@H]1CC[C@]2(CC1)OC(=O)NN=C2c1cc(C(=O)N(C)C)ccc1Br [Example 2-036] | 17 | < 10 |  |  |
| Cc1cc(C(=O)N[C@@H](C)CN2CCC3(CC2)OC(=O)NN=C3c2ccc(F)cc2Cl)[nH]n1 [Example 93] | 32 | < 10 |  |  |
| CNC(=O)C(=O)N[C@@H](C)C[C@H]1CC[C@]2(CC1)OC(=O)NN=C2c1cnc(N2C[C@@H]3C[C@H]2CO3)cc1Cl [Example 244] | 19 | < 10 |  |  |
| Cc1ncccc1C1=NNC(=O)O[C@]12CC[C@@H](C[C@H](C)NC(=O)c1cc3ccccc3o1)CC2 [Example 104] | 75 | 217 |  |  |
| C[C@@H](CN1CCC2(CC1)OC(=O)NN=C2c1ccc(F)cc1Br)NC(=O)N1CCC2(CC2)C1 [Example 284] | 61 | 40 |  |  |
| CNC(=O)C(=O)N[C@@H](C)C[C@H]1CC[C@]2(CC1)OC(=O)NN=C2c1cnc(C2CC2)cc1Cl [Example 265] | 13 | < 10 |  |  |
| CONC(=O)N[C@@H](C)C[C@H]1CC[C@]2(CC1)OC(=O)NN=C2c1ccc(F)cc1I [Example 208] | 45 | 224 |  |  |
| C[C@@H](C[C@H]1CC[C@]2(CC1)OC(=O)NN=C2c1ccc(S(C)(=O)=O)cc1Cl)NC(=O)c1cc(Cl)no1 [Example 52] | 21 | < 10 |  |  |
| COc1cc(C)c(C2=NNC(=O)O[C@]23CC[C@@H](C[C@H](C)NC(=O)N2CCc4nocc4C2)CC3)cn1 [Example 260] | 31 | < 10 |  |  |
| CNC(=O)C(=O)N[C@@H](C)C[C@H]1CC[C@]2(CC1)OC(=O)NN=C2c1cc(OC(F)(F)F)ccc1Br [Example 294] | 11 | < 10 |  |  |
| Cc1cc(F)ccc1C1=NNC(=O)O[C@]12CC[C@@H](C[C@H](C)NC(=O)N1CC[C@H](c3ccccc3)C1)CC2 [Example 137] | 505 | 1590 |  |  |
| C[C@@H](CN1CCC2(CC1)OC(=O)NN=C2c1cc(C#N)ccc1Br)NC(=O)c1ccccc1C(F)(F)F [Example 2-029] | 1510 | 8410 |  |  |
| C[C@@H](C[C@H]1CC[C@]2(CC1)OC(=O)NN=C2c1cccc(OC(F)F)c1Br)NC(=O)C(=O)NC1CC1 [Example 308] | 15 | < 10 |  |  |
| C[C@@H](C[C@H]1CC[C@]2(CC1)OC(=O)NN=C2c1ccc(S(C)(=O)=O)cc1Br)NC(=O)c1ccccc1 [Example 49] | 31 | 11 |  |  |
| Cc1cnc(C(=O)N[C@@H](C)C[C@H]2CC[C@]3(CC2)OC(=O)NN=C3c2ccc(F)cc2Br)cn1 [Example 253] | 252 | 324 |  |  |

| Compound | IC50 [1, 3] [nM] | IC50 [2, 4] [nM] | IC50 ([1]; column 1 of continuation tables 2-12 to 2-14, read-out: human PLD1 enzyme inhibitory activity IC50) [nM] | IC50 ([2]; column 2 of continuation tables 2-12 to 2-14, read-out: human PLD2 enzyme inhibitory activity IC50) [nM] |
| --- | --- | --- | --- | --- |
| C[C@@H](C[C@H]1CC[C@]2(CC1)OC(=O)NN=C2c1ccc(OCC(C)(C)O)cc1Br)NC(=O)c1cc(Cl)no1 [Example 131] | 10 | < 10 |  |  |
| C[C@@H](C[C@H]1CC[C@]2(CC1)OC(=O)NN=C2c1ccc(F)cc1Br)NC(=O)/C=C/CN(C)C [Example 279] | 86 | 44 |  |  |
| CNC(=O)C(=O)N[C@@H](C)CN1CCC2(CC1)OC(=O)NN=C2c1cccc(F)c1Br [Example 2-030] | 31 | 18 |  |  |
| Cc1cc(C(=O)N[C@@H](C)C[C@H]2CC[C@]3(CC2)OC(=O)NN=C3c2cccc3c2OCC3)[nH]n1 [Example 107] | 85 | 139 |  |  |
| C[C@@H](CN1CCC2(CC1)OC(=O)NN=C2c1cc(C#N)ccc1Br)NC(=O)c1cn(C)cn1 [Example 2-054] | 37 | < 10 |  |  |
| Cc1cc(N2CCOCC2)ccc1C1=NNC(=O)O[C@]12CC[C@@H](C[C@H](C)NC(=O)N1CCOCC1)CC2 [Example 200] | 103 | 82 |  |  |
| C[C@@H](CN1CCC2(CC1)OC(=O)NN=C2c1ccc(F)cc1Br)NC(=O)c1cnn(C(F)(F)F)c1 [Example 255] | 32 | 14 |  |  |
| C[C@@H](CN1CCC2(CC1)OC(=O)NN=C2c1ccc(C#N)cc1Br)NC(=O)c1cc(Cl)no1 [Example 2-061] | 14 | < 10 |  |  |
| C[C@@H](C[C@H]1CC[C@]2(CC1)OC(=O)NN=C2c1cc(OCC(F)(F)F)ccc1Br)NC(=O)C(=O)NC1CC1 [Example 297] | 13 | < 10 |  |  |
| C[C@@H](C[C@H]1CC[C@]2(CC1)OC(=O)NN=C2c1ccccc1S(C)(=O)=O)NC(=O)c1cc(Cl)no1 [Example 78] | 350 | 252 |  |  |
| CNC(=O)C(=O)N[C@H](C)CN1CCC2(CC1)OC(=O)NN=C2c1ccc(F)cc1Br [Example 2-011] | 2110 | 2940 |  |  |
| CNC(=O)C(=O)N[C@@H](C)C[C@]1(O)CC[C@@]2(CC1)OC(=O)NN=C2c1ccc(F)cc1Br [Example 321] | 42 | < 10 |  |  |
| CNC(=O)C(=O)N[C@@H](C)C[C@H]1CC[C@]2(CC1)OC(=O)NN=C2c1ccc(OCC(C)(C)O)cc1Br [Example 130] | 18 | < 10 |  |  |
| C[C@@H](C[C@H]1CC[C@]2(CC1)OC(=O)NN=C2c1ccc(F)cc1Br)NC(=O)C1(O)CC1 [Example 36] | 221 | 137 |  |  |
| CSc1ccc(C2=NNC(=O)OC23CCN(C[C@H](C)NC(=O)c2cc4cc(F)ccc4o2)CC3)c(Cl)c1 [Example 115] | 15 | < 10 |  |  |
| Cc1cc(C(=O)N[C@@H](C)CN2CCC3(CC2)OC(=O)NN=C3c2cc(Br)c(F)cc2Cl)[nH]n1 [Example 2-016] | 19 | < 10 |  |  |
| C[C@@H](CN1CCC2(CC1)OC(=O)NN=C2c1cc(C#N)ccc1Br)NC(=O)C1COCCO1 (mixture of isomers) [Example 2-049] | 1740 | 1440 |  |  |
| Cc1cc(C(=O)N[C@@H](C)C[C@H]2CC[C@]3(CC2)OC(=O)NN=C3c2ccc(S(C)(=O)=O)cc2)[nH]n1 [Example 9] | 83 | 56 |  |  |
| C[C@@H](CN1CCC2(CC1)OC(=O)NN=C2c1cc(C#N)ccc1Br)NC(=O)c1cncn1C [Example 2-053] | 676 | 245 |  |  |
| CNC(=O)C(=O)NC(C)C[C@H]1CC[C@@]2(CC1)OC(=O)NN=C2c1cc(C#N)ccc1Br (mixture of isomers) [Example 2-148] |  |  | 140 | 46 |
| CNC(=O)C(=O)N[C@@H](C)C[C@H]1CC[C@]2(CC1)OC(=O)NN=C2c1ccc(C(C)(C)O)cc1Br [Example 96] | 18 | < 10 |  |  |
| C[C@@H](CN1CCC2(CC1)OC(=O)NN=C2c1ccc(F)cc1Br)NC(=O)C(=O)NC12CC(C1)C2 [Example 202] | 832 | 1250 |  |  |
| COC(=O)N[C@@H](C)C[C@H]1CC[C@]2(CC1)OC(=O)NN=C2c1ccc(F)cc1C [Example 156] | 236 | 412 |  |  |
| Cc1cc(C(=O)N[C@@H](C)C[C@H]2CC[C@]3(CC2)OC(=O)NN=C3c2cc(OC(F)F)ccc2C)[nH]n1 [Example 215] | < 10 | < 10 |  |  |
| CNC(=O)C(=O)N[C@@H](C)C[C@H]1CC[C@]2(CC1)OC(=O)NN=C2c1ccccc1SC(F)(F)F [Example 2-019] | 12 | < 10 |  |  |
| C[C@@H](C[C@H]1CC[C@]2(CC1)OC(=O)NN=C2c1ccc(C#N)cc1Br)NC(=O)c1cc(C2CC2)n[nH]1 [Example 2-072] | 14 | 24 |  |  |
